In patent EP4796530A1 (Biocells (Beijing) Biotech Co., Ltd., priority 2023, dated 2025):

Legend:
[1] = molecular target: T1, NLRP3 (Mus musculus, UniProt Q8R4B8); assay: Inhibition of canonical NLRP3 activation (LPS+ATP/Nig) in J774A.1 cells, IL-1β release by ELISA, single concentration; type: cell-based; design: The mouse macrophage cell line J774A.1 was used, and LPS was used as the first signal; host or cells: J774A.1 mouse monocyte-macrophage cell line; details: J774.A1, 1 µM compound, LPS + 5 mM ATP or 10 µM Nig, compared with the positive control, read-out: inhibition of IL-1β release
Procedure: J774A.1 cells were plated in a 48-well plate at a density of 1.0×10^6 cells/mL, with 300 µL per well. Subsequently, NLRP3 was activated using LPS+5 mM ATP (adenosine triphosphate) or 10 µM Nig (nigericin). […] ATP was purchased from Sigma, Cat. No.: L2654. Nig was purchased from Shanghai Yuanye Bio-Technology Co., Ltd., Cat. No.: S45490.
Experimental groups: a negative control group, an LPS-alone incubation control group, an LPS+ATP or +Nig positive control group, and an example compound experimental group.
After the plated J774A.1 cells adhering to the plate, the culture medium was replaced. For all the groups except the negative control group, the culture medium was completely replaced with cell culture medium containing 1 µg/mL LPS. The negative control group received cell culture medium. Then, all the groups were incubated overnight. 18 h later, the culture medium was replaced again. The culture medium of the example compound experimental group was completely replaced with cell culture medium containing the compounds; while the negative control group, the LPS-alone incubation control group, and the LPS+ATP/Nig positive control group received cell culture medium. 1 h later, the culture mediums of the LPS+ATP/Nig positive control group and the example compound experimental group were completely replaced with cell culture medium containing 5 mM ATP or 10 µM Nig. 1 h later, the cell supernatants were collected for IL-1β detection.
Therefore, the relative change in the amount of IL-1β release may directly reflect NLRP3 inhibitory effect.

[2] = molecular target: T1, NLRP3; assay: Inhibition curves (IC50) of canonical NLRP3 activation in J774A.1 cells, IL-1β release; type: cell-based; design: The mouse macrophage cell line J774A.1 was used, and LPS was used as the first signal; host or cells: J774A.1 mouse monocyte-macrophage cell line; details: J774A.1 cell LPS+Nig activation model
Procedure: J774A.1 cells were plated in a 48-well plate at a density of 1.0×10^6 cells/mL, with 300 µL per well. Subsequently, NLRP3 was activated by LPS+ATP or LPS+Nig. […] ATP was purchased from Sigma, Cat. No.: L2654. Nig was purchased from Shanghai Yuanye Bio-Technology Co., Ltd., Cat. No.: S45490.
Experimental groups: a negative control group, an LPS-alone incubation control group, an LPS+ATP/Nig positive control group, and an example compound experimental group with different concentrations.
After the plated J774A.1 cells adhering to the plate, the culture medium was replaced. For all the groups except the negative control group, the culture medium was completely replaced with cell culture medium containing 1 µg/mL LPS. The negative control group received cell culture medium. Then, all the groups were incubated overnight. 18 h later, the culture medium was replaced again. The culture medium of the example compound experimental group was completely replaced with culture medium containing different concentrations of compounds; while the negative control group, the LPS-alone incubation control group, and the LPS+ATP/Nig positive control group received cell culture medium. 1 h later, the culture mediums of the LPS+ATP/Nig positive control group and the example compound experimental group with different concentrations were completely replaced with cell culture medium containing 5 mM ATP or 10 µM Nig. 1 h later, the cell supernatants were collected for IL-1β detection.
(§1) Therefore, the relative change in the amount of IL-1β release may directly reflect NLRP3 inhibitory effect. The inhibitory effect of the compounds varies with different concentrations, and based on this, an inhibition curve can be constructed, and the inhibitory effects of the compounds were assessed by IC50.

[3] = Mouse pharmacokinetics after intravenous administration (plasma and brain, LC-MS); type: in vivo; details: C57 mice, intravenous 5 mg/kg; for concentration at 120 min: brain after cardiac perfusion, read-out: brain drug concentration at 120 min; for half-life / AUC: plasma; for AUC: read-out: area under the curve (AUC) from 1 to 120 min
Procedure: C57 mice were administered intravenously, at a dosage concentration of 5 mg/kg in each group. Retro-orbital blood collection was performed on the mice at 1 min, 30 min, 1 h, and 2 h post-dosing. The collected blood was centrifuged at 3000 rpm for 10 min at 4 °C to obtain plasma. Acetonitrile was added at a 1:3 volume ratio of plasma: acetonitrile to precipitate proteins. After centrifugation, the supernatant was collected and filtered. The concentration of the compound was detected using LC-MS (Agilent 1260-G6125, SIM mode). In addition, 2 h after drug injection, the mice were subjected to cardiac perfusion and then their brains were harvested. Following tissue homogenization and centrifugation, the supernatant was collected. Acetonitrile was added at a 1:3 volume ratio of supernatant: acetonitrile to precipitate proteins. After centrifugation, the supernatant was collected and filtered. The concentration of the compound was detected using LC-MS (Agilent 1260-G6125, SIM mode).
(§2) Experimental groups: a vehicle control group, and a dosing group.

[4] = molecular target: T2, NLRP3 (Homo sapiens, UniProt Q96P20); assay: Inhibition of canonical NLRP3 activation (LPS+Nig) in PMA-differentiated THP-1 cells, IL-1β release, single concentration; details: 1 µM compound, FIG. 6 legend
Procedure: THP-1 cells were plated in a 96-well plate at a density of 1.0×10^6 cells/mL, with 100 µL per well. Subsequently, PMA-induced differentiation and cell resting were performed, followed by activation of NLRP3 by LPS+Nig.
Experimental groups: a negative control group, an LPS-alone incubation control group, an LPS+Nig positive control group, and a 1 µM example compound experimental group.
100 ng/mL PMA was added at the same time as THP-1 cells were plated. After incubation for 24 h, the cells were washed three times with PBS, and then the culture medium was changed and the cells were allowed to rest for 24 h. Then the culture medium was completely replaced with medium containing 1 µg/mL LPS. The cells were incubated overnight. On the next day, the wells to which LPS was added completely received culture medium, and then the wells were incubated with specified example compounds for 1 h.
In this experimental example, effectively inhibiting IL-1β release means that the release amount in each group is reduced by 50% or more compared with that of the positive control.

[5] = molecular target: T1, NLRP3; assay: Inhibition of APOE peptide-induced NLRP3 activation in J774A.1 cells, IL-1β release; type: cell-based; design: The mouse macrophage cell line J774A.1 was used, and LPS was used as the first signal; host or cells: J774A.1 mouse monocyte-macrophage cell line; details: J774.A1, 10 µM compound, 30 µg/mL APOE peptide
Procedure: J774A.1 cells were plated in a 48-well plate at a density of 1.0×10^6 cells/mL, with 300 µL per well. Subsequently, NLRP3 was activated by APOE peptide. The cell culture medium comprises: DMEM (brand: Gibco, Cat. No.: C12430500) + 10% fetal bovine serum (brand: Gibco, Cat. No.: 10099-141) + 1% sodium pyruvate (brand: Gibco, Cat. No.: 11360-070) + 1% penicillin-streptomycin solution (brand: Solarbio, Cat. No.: P1400). The J774A.1 mouse monocyte-macrophage cell line was purchased from the Cell Resource Center of the Institute of Basic Medical Sciences of Chinese Academy of Medical Sciences (Resource No. 1101MOU-PUMC000222). APOE2/3 peptide 1-151 was obtained through recombinant protein expression and purification by Biocells (Beijing) Biotech Co., Ltd. The procedures were as follows: the sequence (SEQ ID NO: 1) shown below was inserted into the pET-28A plasmid and transformed into BL-21(DE3) expression strain; the expression of target protein was induced with IPTG at a low temperature; after collecting the bacteria via centrifugation, ultrasonic disruption was performed; and after centrifugation, the supernatant was purified by nickel ion affinity chromatography (AKTA pure), and then the product was concentrated by ultrafiltration and identified by BCA+protein electrophoresis. Sequence: [formula]
Experimental groups: a negative control group, an APOE treatment control group, and an example compound experimental group.
After the plated J774A.1 cells adhering to the plate, the culture medium was replaced. The culture medium of the APOE treatment control group was replaced with cell culture medium containing 30 µg/mL APOE peptide, the culture medium of the example compound experimental group was replaced with culture medium containing 30 µg/mL APOE peptide combined with the compounds, and the negative control group received cell culture medium. Then, all the groups were incubated overnight. 18 h later, the cell supernatants were collected for IL-1β detection.
Activation of NLRP3 by APOE peptide will result in release of mature IL-1β, and the release can be inhibited by NLRP3 inhibitors. Therefore, the relative change in the amount of IL-1β release may directly reflect NLRP3 inhibitory effect.
In this experimental example, effective inhibition refers to a reduction of 70% or more in the release amount, compared with the release amount of the positive control minus the negative control.

[6] = molecular target: T2, NLRP3; assay: Inhibition curves (IC50) of canonical NLRP3 activation in healthy human whole blood, IL-1β release; type: cell-based; details: LPS+1 mM ATP canonical activation model
Procedure: 10 mL of human whole blood was collected intravenously aseptically, and plated into a 96-well plate, with 198 µL per well. Then, 2 µL of 100× gradient dilutions of the example compounds at specified concentrations were added, immediately followed by the addition of 10 µL of 21 µg/mL LPS gradient dilution. 3 h later, nigericin with a working concentration of 5 µM or 1 mM ATP was added. After stimulation for 1 h, the whole blood was collected and centrifuged to collect the supernatant. IL-1β in the sample supernatant was detected by ELISA method.
Experimental groups: a negative control group, an LPS-alone incubation control group, an LPS+Nig/ATP positive control group, and a 1 µM example compound experimental group.
10 mL of human whole blood was collected intravenously aseptically. The anticoagulant heparin sodium was added preemptively into a 50 mL centrifuge tube. The collected whole blood was directly plated in a 96-well plate, with 198 µL per well. […] IL-1β in the sample supernatant was detected by ELISA method.
Therefore, the relative change in the amount of IL-1β release may directly reflect NLRP3 inhibitory effect. The inhibitory effect of the compounds varies with different concentrations, and based on this, an inhibition curve can be constructed, and the inhibitory effect of the compounds were assessed by IC50.

[7] = molecular target: T2, NLRP3; assay: Inhibition curves (IC50) of canonical NLRP3 activation (LPS+Nig) in THP-1 cells, IL-1β release; type: cell-based; design: host or cells: THP-1 human acute monocytic leukemia cell line, PMA-differentiated; details: THP-1 cell LPS+Nig activation model
Procedure: Nig was purchased from Shanghai Yuanye Bio-Technology Co., Ltd., Cat. No.: S45490.
The cells were incubated overnight.
as §1

[8] = Rat plasma pharmacokinetics after intravenous administration (LC-MS); type: in vivo; details: SD rats, intravenous 2.5 mg/kg
Procedure: SD rats were administered intravenously, at a dosage concentration of 2.5 mg/kg in each group. Blood was collected at the time points of 1 min, 30 min, 1 h, 2 h, 4 h, 6 h, and 24 h. The collected blood was centrifuged at 3000 rpm for 10 min at 4 °C to obtain plasma. Acetonitrile was added at a 1:3 volume ratio of plasma: acetonitrile to precipitate proteins. After centrifugation, the supernatant was collected and filtered. The concentration of the compound was detected using LC-MS (Agilent 1260-G6125, SIM mode).
as §2

T2 sequence (Q96P20 whole entry): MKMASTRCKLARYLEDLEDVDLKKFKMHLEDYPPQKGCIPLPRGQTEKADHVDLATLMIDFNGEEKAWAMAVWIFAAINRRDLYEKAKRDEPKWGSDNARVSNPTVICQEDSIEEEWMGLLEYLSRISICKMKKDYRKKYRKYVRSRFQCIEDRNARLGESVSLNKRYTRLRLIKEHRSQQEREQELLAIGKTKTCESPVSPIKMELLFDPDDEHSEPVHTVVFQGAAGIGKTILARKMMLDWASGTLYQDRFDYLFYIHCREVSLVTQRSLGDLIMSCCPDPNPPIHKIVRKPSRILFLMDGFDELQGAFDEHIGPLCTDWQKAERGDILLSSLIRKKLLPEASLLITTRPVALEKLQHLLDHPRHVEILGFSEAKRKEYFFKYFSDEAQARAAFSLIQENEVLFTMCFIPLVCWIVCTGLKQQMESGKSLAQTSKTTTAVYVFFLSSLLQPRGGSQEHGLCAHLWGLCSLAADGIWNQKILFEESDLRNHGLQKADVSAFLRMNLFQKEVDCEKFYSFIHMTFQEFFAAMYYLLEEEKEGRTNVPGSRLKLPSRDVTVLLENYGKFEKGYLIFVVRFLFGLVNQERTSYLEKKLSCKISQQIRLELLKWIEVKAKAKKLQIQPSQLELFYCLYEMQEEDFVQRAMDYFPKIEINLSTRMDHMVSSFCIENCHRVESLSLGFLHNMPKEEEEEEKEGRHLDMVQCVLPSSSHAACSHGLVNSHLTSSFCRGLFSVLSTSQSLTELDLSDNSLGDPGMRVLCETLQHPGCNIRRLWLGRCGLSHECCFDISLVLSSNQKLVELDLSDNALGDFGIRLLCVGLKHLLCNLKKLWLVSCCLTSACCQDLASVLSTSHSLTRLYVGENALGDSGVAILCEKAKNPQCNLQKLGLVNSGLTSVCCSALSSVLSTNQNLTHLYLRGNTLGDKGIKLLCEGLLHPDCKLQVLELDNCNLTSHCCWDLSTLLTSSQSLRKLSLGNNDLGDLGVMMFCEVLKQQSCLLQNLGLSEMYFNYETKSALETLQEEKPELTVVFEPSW
T1 sequence (Q8R4B8 whole entry): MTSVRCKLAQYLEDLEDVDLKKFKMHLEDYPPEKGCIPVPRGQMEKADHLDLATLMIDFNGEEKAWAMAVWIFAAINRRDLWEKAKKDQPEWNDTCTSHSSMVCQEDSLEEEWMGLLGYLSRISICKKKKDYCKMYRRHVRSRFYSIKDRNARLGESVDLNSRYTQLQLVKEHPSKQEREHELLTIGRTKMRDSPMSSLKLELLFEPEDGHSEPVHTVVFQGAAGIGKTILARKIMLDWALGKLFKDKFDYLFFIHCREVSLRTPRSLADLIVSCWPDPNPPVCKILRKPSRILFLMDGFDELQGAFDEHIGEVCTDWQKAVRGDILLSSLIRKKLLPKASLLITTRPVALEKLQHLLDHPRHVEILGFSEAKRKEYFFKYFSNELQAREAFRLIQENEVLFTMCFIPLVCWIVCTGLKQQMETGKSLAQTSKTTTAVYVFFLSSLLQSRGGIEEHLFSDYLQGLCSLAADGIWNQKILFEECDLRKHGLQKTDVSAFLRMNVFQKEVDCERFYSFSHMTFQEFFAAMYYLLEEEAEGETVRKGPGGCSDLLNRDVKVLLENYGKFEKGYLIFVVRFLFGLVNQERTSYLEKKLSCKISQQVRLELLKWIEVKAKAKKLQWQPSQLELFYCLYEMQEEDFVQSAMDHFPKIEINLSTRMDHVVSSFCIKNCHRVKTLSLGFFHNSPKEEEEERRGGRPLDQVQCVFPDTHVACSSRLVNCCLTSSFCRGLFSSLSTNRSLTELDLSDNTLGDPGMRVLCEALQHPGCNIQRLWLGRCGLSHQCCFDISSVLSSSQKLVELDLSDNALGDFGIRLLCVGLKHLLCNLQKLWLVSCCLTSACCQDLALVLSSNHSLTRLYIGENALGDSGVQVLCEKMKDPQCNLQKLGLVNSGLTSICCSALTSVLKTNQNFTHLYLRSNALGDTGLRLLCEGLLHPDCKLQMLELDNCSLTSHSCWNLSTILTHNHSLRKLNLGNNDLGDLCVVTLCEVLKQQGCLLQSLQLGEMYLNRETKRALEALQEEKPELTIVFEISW

Row | Compound | inhibition at 1 µM [1] [%] | IC50 [2] [nM] | concentration at 120 min [3] [ng/mL] | half-life [3] [h] | AUC [3] [ng·h/mL] | inhibition at 10 µM [5] [%] | further results
1 | CN(C)Cc1cccc(S(=O)(=O)NC(=O)Nc2c3c(cc4c2CCC4)CCC3)c1Cl [Example 1, 2-chloro-3-((dimethylamino)methyl)-N-((1,2,3,5,6,7-hexahydro-s-indacen-4-yl)carbamoyl)benzenesulfonamide] | > 80 | 64.6 |  |  |  |  | 
2 | CN(C)Cc1cc(S(=O)(=O)NC(=O)Nc2c3c(cc4c2CCC4)CCC3)cc(F)c1O [Example 17, 3-((dimethylamino)methyl)-5-fluoro-N-((1,2,3,5,6,7-hexahydro-s-indacen-4-yl)carbamoyl)-4-hydroxybenzenesulfonamide] | > 80 | 194 | 184 | 3.85 | 15500 | ≥ 70 | reduction in release amount compared with that of the positive control minus the LPS-alone control [4]: ≥ 75%
3 | CN(C)Cc1cc(S(=O)(=O)NC(=O)Nc2c3c(cc4c2CCC4)CCC3)c(F)cc1N [Example 22, 4-amino-5-((dimethylamino)methyl)-2-fluoro-N-((1,2,3,5,6,7-hexahydros-indacen-4-yl)carbamoyl)benzenesulfonamide] | > 80 | 127 |  |  |  | ≥ 70 | 
4 | Cc1c(CN(C)C)cccc1S(=O)(=O)NC(=O)Nc1c2c(cc3c1CCC3)CCC2 [Example 26, 3-((dimethylamino)methyl)-N-((1,2,3,5,6,7-hexahydro-s-indacen-4-yl)carbamoyl)-2-methylbenzenesulfonamide] | > 80 | 81.6 |  |  |  | ≥ 70 | 
5 | CN(C)Cc1cccc(S(=O)(=O)NC(=O)Nc2c3c(cc4c2CCC4)CCC3)c1O [Example 27, 3-((dimethylamino)methyl)-N-((1,2,3,5,6,7-hexahydro-s-indacen-4-yl)carbamoyl)-2-hydroxybenzenesulfonamide] | > 80 | 79.6 | 96 | 2.88 | 47300 |  | IC50 [6]: 55800 nM; reduction in release amount compared with that of the positive control minus the LPS-alone control [4]: ≥ 75%
6 | Cc1c(S(=O)(=O)NC(=O)Nc2c3c(cc4c2CCC4)CCC3)ccc(O)c1CN(C)C [Example 30, 3-((dimethylamino)methyl)-N-((1,2,3,5,6,7-hexahydro-s-indacen-4-yl)carbamoyl)-4-hydroxy-2-methylbenzenesulfonamide] |  | 144 |  |  |  |  | IC50 [7]: 36.7 nM
7 | CN(C)Cc1c(O)ccc(S(=O)(=O)NC(=O)Nc2c3c(cc4c2CCC4)CCC3)c1F [Example 31, 3-((dimethylamino)methyl)-2-fluoro-N-((1,2,3,5,6,7-hexahydro-s-indacen-4-yl)carbamoyl)-4-hydroxybenzenesulfonamide] |  | 203 |  |  |  |  | 
8 | CN(C)C1CCOc2c1cccc2S(=O)(=O)NC(=O)Nc1c2c(cc3c1CCC3)CCC2 (stereo not shown) [Example 32, 4-(dimethylamino)-N-((1,2,3,5,6,7-hexahydro-s-indacen-4-yl)carbamoyl)chromane-8-sulfonamide] |  | 390 |  |  |  |  | 
9 | CC(C)(O)c1coc(S(=O)(=O)NC(=O)Nc2c3c(cc4c2CCC4)CCC3)c1 [MCC950, reference compound] |  |  | 0 | 1.28 | 29600 |  | half-life [8]: 0.267 h; AUC ([8]; read-out: AUC from 1 to 1440 min): 4380 ng·h/mL
